SMILES strings stand for the structures.

The test system of one assay is Musca domestica. The assay can be described thus: Filter paper/sucrose bait test against female Musca domestica. It is filed as in vivo. As to conditions: 500 ppm test solution, 0.7 mL on filter paper; 10 female Musca domestica; after 24 hours; read-out: mortality rate. The method, then:
Each of the formulations of the present compounds (1), (2), (3), (4), (5), (6), (8), (9), (10), (12), (14) and (15) obtained in Formulation Example 20 was diluted so that the concentration of the present compound was 500 ppm to prepare a test solution.
On the bottom of a polyethylene cup having a diameter of 5.5 cm, a filter paper having the same size was laid and 0.7 mL of the test solution was dropped on the filter paper, and then 30 mg of a sucrose as a bait was uniformly placed. In the polyethylene cup, 10 female Musca domesticas were released and the cup was lidded. After 24 hours, life and death of Musca domesticas were examined and the mortality rate was determined.

The next assay concerns Culex pipiens pallens. As to the kind of experiment: Water treatment test against Culex pipiens pallens last instar larvae. The assay is classed as in vivo. Particulars: 24 h; active ingredient 3.5 ppm in water; 20 Culex pipiens pallens last instar larvae; after one day; read-out: mortality rate. The method, then:
Each of the formulations of the present compounds (1), (3), (4), (6), (8), (9), (10), (14) and (15) obtained in Formulation Example 20 was diluted so that the concentration of the present compound was 500 ppm to prepare a test solution.
To 100 mL of ion-exchange water was added 0.7 mL of the above test solution (concentration of an active ingredient: 3.5 ppm). In the solution, 20 Culex pipiens pallens last instar larvae were released. After one day, life and death of Culex pipiens last instar larvae were examined and the mortality rate was determined.

As to `COc1ncc(CSCCC(F)(F)F)cn1` [present compound (12), 2-methoxy-5-(3,3,3-trifluoropropylsulfanylmethyl)pyrimidine], the mortality at 500 ppm with Musca domestica was at least 90%.

`FC(F)(F)CCSCc1cnc(C(F)(F)F)nc1` [present compound (10), 2-trifluoromethyl-5-(3,3,3-trifluoropropylsulfanylmethyl)pyrimidine]: in the assay on Musca domestica, the mortality at 500 ppm is at least 90%. Also, in the assay on Culex pipiens pallens, the mortality at 3.5 ppm is at least 95%.

In the case of `O=S(=O)(CCC(F)(F)F)C(Cl)c1ccc(C(F)(F)F)cn1` (stereo not drawn) [present compound (15), 2-[chloro-(3,3,3-trifluoropropanesulfonyl)methyl]-5-trifluoromethylpyridine], in the assay with Musca domestica, the mortality at 500 ppm is at least 90%. In the assay with Culex pipiens pallens, the mortality at 3.5 ppm was at least 95%.

Consider `O=S(=O)(CCC(F)(F)F)Cc1ccc(C(F)(F)F)nc1` [present compound (2), 2-trifluoromethyl-5-(3,3,3-trifluoropropanesulfonylmethyl)pyridine], for which the mortality at 500 ppm with Musca domestica was at least 90%.

Turning to `FC(F)(F)CCSCc1ccc(Cl)cn1` [present compound (5), 5-chloro-2-(3,3,3-trifluoropropylsulfanylmethyl)pyridine], the mortality at 500 ppm in the assay with Musca domestica was at least 90%.

As to `FC(F)(F)CCSCc1ccc(C(F)(F)F)nc1` [present compound (1), 2-trifluoromethyl-5-(3,3,3-trifluoropropylsulfanylmethyl)pyridine], in the assay with Musca domestica, the mortality at 500 ppm is at least 90%. Further, the mortality at 3.5 ppm with Culex pipiens pallens is at least 95%.

Regarding `CC(SCCC(F)(F)F)c1ccc(C(F)(F)F)cn1` (stereo not drawn) [present compound (8), 5-trifluoromethyl-2-[1-(3,3,3-trifluoropropylsulfanyl)ethyl]pyridine], the mortality at 500 ppm with Musca domestica was at least 90%. In addition, the mortality at 3.5 ppm with Culex pipiens pallens was at least 95%.

For the compound `CC(c1ccc(C(F)(F)F)nc1)S(=O)(=O)CCC(F)(F)F` (stereo not drawn) [present compound (4), 2-trifluoromethyl-5-[1-(3,3,3-trifluoropropanesulfonyl)ethyl]pyridine], the mortality at 500 ppm in the assay on Musca domestica is at least 90%. In addition, in the assay with Culex pipiens pallens, the mortality at 3.5 ppm was at least 95%.

As to `CC(SCCC(F)(F)F)c1ccc(Cl)cn1` (stereo not drawn) [present compound (6), 5-chloro-2-[1-(3,3,3-trifluoropropylsulfanyl)ethyl]pyridine], the mortality at 500 ppm with Musca domestica is at least 90%. Besides, in the assay with Culex pipiens pallens, the mortality at 3.5 ppm is at least 95%.

On to `COC(=O)C(Cl)(c1ccc(C(F)(F)F)cn1)S(=O)(=O)CCC(F)(F)F` (stereo not drawn) [present compound (14), methyl 2-chloro-2-(5-trifluoromethylpyridin-2-yl)-2-(3,3,3-trifluoropropylsulfonyl)acetate], for which the mortality at 500 ppm in the assay with Musca domestica was at least 90%. For the same compound, in the assay on Culex pipiens pallens, the mortality at 3.5 ppm was at least 95%.

With `CC(SCCC(F)(F)F)c1ccc(C(F)(F)F)nc1` (stereo not drawn) [present compound (3), 2-trifluoromethyl-5-[1-(3,3,3-trifluoropropylsulfanyl)ethyl]pyridine], the mortality at 500 ppm in the assay with Musca domestica was at least 90%. Besides, the mortality at 3.5 ppm in the assay on Culex pipiens pallens was at least 95%.

For the compound `CC(c1ccc(C(F)(F)F)cn1)S(=O)(=O)CCC(F)(F)F` (stereo not drawn) [present compound (9), 5-trifluoromethyl-2-[1-(3,3,3-trifluoropropanesulfonyl)ethyl]pyridine], the mortality at 500 ppm with Musca domestica is at least 90%. The mortality at 3.5 ppm in the assay on Culex pipiens pallens is at least 95%.

What is called mortality is the percentage killed.

Values taken from patent US8263628B2, “Fluorine-containing organosulfur compound and pesticidal composition thereof” (Sumitomo Chemical Company, Limited., priority 2007, dated 2012).
